Patent publication US12492170B2, “Tetrahydro-1H-benzazepine compound as potassium channel modulator, preparation method and use thereof” (Shanghai Zhimeng Biopharma Inc., priority 2019, dated 2025)
Read-outs that look alike come from different tables or passages of the source.

Tests used:
SD rats = assay: Safety research: single tail vein injection toxicity, maximum tolerated dose; assay type: in vivo; details: male SD rats; for Maximum tolerated dose: observed 48 hours
Procedure: (§1) Male Sprague-Dawley (SD) rats (SPF grade) were selected, divided into groups (3 rats per group), and administered via tail vein injection. Single administration, observed for 48 hours after administration. During the experiment, two cage-side observations and two detailed clinical observations were performed every day (observation was carried out before and 2 hours after the administration on the day of administration). Toxicity study animals were weighed and recorded every day, and food consumption of each animal for 24±1 hours was measured and recorded every day. At the end of the experiment (D3), euthanasia was performed by carbon dioxide inhalation anesthesia and the death of the animal was ensured by abdominal aorta/venous bleeding, and gross anatomy was performed and recorded.

[1] = as above; assay type: in vivo; details: rat, in vivo, male SD rats, observed 48 hours
Procedure: as §1

KCNQ2 potassium channel = molecular target: T1, KCNQ2 potassium channel (Homo sapiens, UniProt O43526); assay: Potassium ion channel opener activity test (FDSS/μCELL detection, FluxOR); assay type: cell-based
T1 construct: expressed in transfected cells; host or cells: CHO (CHO-KCNQ2, kept under G418 selection)
Procedure: After the digestion was completed, 7 mL culture medium (90% DMEM/F12+10% FBS+500 μg/mL G418) was added to neutralize, centrifugated for 3 minutes at 800 rpm, the supernatant was aspirated, then 5 mL culture medium was added to resuspend, and then the cells were counted.
Cell plating: the density to 3×10^4/well was adjusted according to the results of cell counting. After standing at room temperature for 30 minutes, placed in a 37° C. CO2 incubator and incubated overnight for 16-18 hours. The cell density reached about 80%.
Fluorescent dye incubation: discarded the cell culture medium, 80 μL/well loading buffer was added, and incubated in the dark at room temperature for 60 minutes.
Compound incubation: discarded the loading buffer, 80 μL/well prepared compound solution was added, incubated in the dark at room temperature for 20 minutes.
Fluorescence data collection: FDSS/μCELL instrument was used for real-time fluorescence signal recording, excitation wavelength was 480 nm, emission wavelength was 540 nm, recorded 1 times per second, recorded for 10 seconds after baseline and started to add 20 μL/well stimulation buffer, and then continued to record until the end of 180 seconds.
20 mM compound stock solution in DMSO was prepared, 10 μL of 20 mM compound stock solution was took into 20 μL DMSO solution, serially diluted 3 times to 8 intermediate concentrations; then the intermediate concentrations of the compound were took to the test buffer, diluted 200 times to get the final concentration to be tested, 80 μL was took and added to the test plate.
Each concentration set 3 duplicates.
The excitement effect of the compound was calculated by the following formula: […]

[2] = Pharmacokinetics and cerebral blood ratio after single administration in male ICR mice; assay type: in vivo; details: for AUC(0-inf) / AUC(0-t) / Cmax / half-life / Tmax: plasma
Procedure: Take a healthy male ICR mouse (weight range: 18-22 grams in), grouping, 24 mice/group, and 3 mice/time point, fasting for more than 12 hours (only oral administration group), administration, blood was collected by cardiac puncture at time points 0.083 (only iv), 0.25, 0.5, 1, 2, 4, 6 (only po), 8 and 24 hours, at least 0.3 mL of whole blood was collected to EDTA-K2 anti-coagulation tube, within half an hour, plasma was taken by centrifuge (6000 revolutions, 8 minutes, 4° C.), frozen at −20° C. for later use. At the same time, brain tissue was collected in the oral group. After being rinsed with the physiological saline, the water absorbing paper was used to dry, weighed, and frozen at −20° C. for later use.

[3] = CHO-KCNQ2 cells, fluorescence, FDSS/μCELL, read-out: EC50

Cc1cc2c(c(C)c1NC(=O)CC(C)(C)C)CCCN2Cc1ccc(F)cc1 [Compound B1, reference compound]
toxicity (SD rats; dose of 0.3 mg/kg): unacceptable toxicity | MTD at 48 h [1]: 0.06 to 0.3 mg/kg

Cc1cc2c(c(C)c1NC(=O)CC(C)(C)C)CCCCN2Cc1ccc(F)s1 [Compound A7, N-(1-((5-fluorothiophene-2-yl)methyl)-6,8-dimethyl-2,3,4,5-tetrahydro-1H-benzazepine-7-yl)-3,3-dimethylbutamide]
Maximum tolerated dose (SD rats): MTD > 1 mg/kg | EC50 (KCNQ2 potassium channel): 16 nM

Cc1cc2c(c(C)c1NC(=O)CC1(C)CC1)CCCCN2Cc1ccc(F)cc1 [Compound A5, N-(1-(4-fluorobenzyl)-6,8-dimethyl-2,3,4,5-tetrahydro-1H-benzazepine-7-yl)-2-(1-methylcyclopropyl)acetamide]
EC50 (KCNQ2 potassium channel; [3]): 133 nM

Cc1cc2c(c(C)c1NC(=O)CCC1CCCC1)CCCCN2Cc1ccc(F)s1 [Compound A8, 3-cyclopentyl-N-(1-((5-fluorothiophene-2-yl)methyl)-6,8-dimethyl-2,3,4,5-tetrahydro-1H-benzazepine-7-yl)propionamide]
Maximum tolerated dose (SD rats): MTD > 1 mg/kg | EC50 (KCNQ2 potassium channel): 48 nM

CCCC(=O)Nc1c(C)cc2c(c1C)CCCCN2Cc1ccc(F)cc1 [Compound A3, N-(1-(4-fluorobenzyl)-6,8-dimethyl-2,3,4,5-tetrahydro-1H-benzazepine-7-yl)butanamide]
EC50 (KCNQ2 potassium channel; [3]): 271 nM

Cc1cc2c(c(C)c1NC(=O)CC(C)(C)C)CCCCN2Cc1ccc(F)cc1 [Compound A1, N-(1-(4-fluorobenzyl)-6,8-dimethyl-2,3,4,5-tetrahydro-1H-benzazepine-7-yl)-3,3-dimethylbutanamide]
Maximum tolerated dose (SD rats): MTD > 1 mg/kg | EC50 (KCNQ2 potassium channel): 83 nM | F ([2]; gavage 1 mg/kg vs intravenous 0.3 mg/kg): 56.9% | AUC(0-inf) ([2]; mouse, intravenous 0.3 mg/kg): 74 ng·h/mL | AUC(0-t) ([2]; mouse, intravenous 0.3 mg/kg): 73 ng·h/mL | Cmax ([2]; mouse, intravenous 0.3 mg/kg): 110 ng/mL | half-life ([2]; mouse, intravenous 0.3 mg/kg): 319 min | AUC(0-inf) ([2]; mouse, po, gavage 1 mg/kg): 139 ng·h/mL | AUC(0-t) ([2]; mouse, po, gavage 1 mg/kg): 138 ng·h/mL | Cmax ([2]; mouse, po, gavage 1 mg/kg): 94.4 ng/mL | Tmax ([2]; mouse, po, gavage 1 mg/kg): 30 min | half-life ([2]; mouse, po, gavage 1 mg/kg): 325 min

Cc1cc2c(c(C)c1NC(=O)CC(C)(C)C)CCCCN2Cc1ccc(Cl)s1 [Compound A6, N-(1-((5-chlorothiophene-2-yl)methyl)-6,8-dimethyl-2,3,4,5-tetrahydro-1H-benzazepine-7-yl)-3,3-dimethylbutamide]
Maximum tolerated dose (SD rats): MTD > 1 mg/kg | EC50 (KCNQ2 potassium channel): 21 nM

C#CC(C)(C)CC(=O)Nc1c(C)cc2c(c1C)CCCCN2Cc1ccc(F)cc1 [Compound A4, N-(1-(4-fluorobenzyl)-6,8-dimethyl-2,3,4,5-tetrahydro-1H-benzazepine-7-yl)-3,3-dimethylpent-4-ynamide]
EC50 (KCNQ2 potassium channel; [3]): 165 nM | F ([2]; gavage 2.5 mg/kg vs intravenous 0.5 mg/kg): 43.39% | Kp at 1 h ([2]; mouse, brain, single oral 2.5 mg/kg, 1 h): 1.1 | Kp at 2 h ([2]; mouse, brain, single oral 2.5 mg/kg, 2 h): 1.1 | Kp at 4 h ([2]; mouse, brain, single oral 2.5 mg/kg, 4 h): 1.3 | Kp at 8 h ([2]; mouse, brain, single oral 2.5 mg/kg, 8 h): 1.1 | AUC(0-inf) ([2]; mouse, intravenous 0.5 mg/kg): 255 ng·h/mL | AUC(0-t) ([2]; mouse, intravenous 0.5 mg/kg): 235 ng·h/mL | Cmax ([2]; mouse, intravenous 0.5 mg/kg): 294 ng/mL | half-life ([2]; mouse, intravenous 0.5 mg/kg): 114 min | AUC(0-inf) ([2]; mouse, po, gavage 2.5 mg/kg): 541 ng·h/mL | AUC(0-t) ([2]; mouse, po, gavage 2.5 mg/kg): 510 ng·h/mL | Cmax ([2]; mouse, po, gavage 2.5 mg/kg): 257 ng/mL | Tmax ([2]; mouse, po, gavage 2.5 mg/kg): 30 min | half-life ([2]; mouse, po, gavage 2.5 mg/kg): 117 min

Cc1cc2c(c(C)c1NC(=O)CCC1CCCC1)CCCCN2Cc1ccc(F)cc1 [Compound A2, 3-cyclopentyl-N-(1-(4-fluorobenzyl)-6,8-dimethyl-2,3,4,5-tetrahydro-1H-benzazepine-7-yl)propionamide]
Maximum tolerated dose (SD rats): MTD > 1 mg/kg | EC50 (KCNQ2 potassium channel): 37 nM

Cc1cc2c(c(C)c1NC(=O)CC(C)(C)C)CCN2Cc1ccc(F)cc1 [Compound B2, reference compound]
toxicity (SD rats; dose of 1 mg/kg): unacceptable toxicity | MTD at 48 h [1]: 0.3 to 1 mg/kg
